Test results published in PubChem BioAssay (NCI).
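1) Cells in 96-well plates. 2) Compound, 48 h, 5 concentrations. 3) Linear interpolation between surrounding doses. 4) Unreached endpoint = highest concentration. TGI: total growth inhibition.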

Assays:
Test in all cases: inhibition of tumour cell growth, NCI panel, 48 h
[1] = test system: NCI-H522 lung
[2] = test system: SR leukemia
[3] = test system: OVCAR-8 ovarian
[4] = test system: NCI-H460 lung
[5] = test system: MDA-MB-435
[6] = test system: SK-MEL-5 melanoma
[7] = test system: RXF 393 renal
[8] = test system: MOLT-4 leukemia
[9] = test system: CCRF-CEM leukemia
[10] = test system: SNB-75 CNS
[11] = test system: SK-OV-3 ovarian
[12] = test system: EKVX NSCLC
[13] = test system: 786-0 renal
[14] = test system: COLO 205 colon
[15] = test system: M14 melanoma
[16] = test system: U251 CNS
[17] = test system: HCT-15 colon
[18] = test system: HOP-92 NSCLC
[19] = test system: BT-549 breast
[20] = test system: MDA-MB-231 breast
[21] = test system: HCT-116 colon
[22] = test system: NCI/ADR-RES ovarian
[23] = test system: KM12 colon
[24] = test system: OVCAR-5 ovarian
[25] = test system: HCC-2998 colon
[26] = test system: SF-268 CNS
[27] = test system: NCI-H226 lung
[28] = test system: UACC-257 melanoma
[29] = test system: T-47D breast
[30] = test system: HS 578T breast
[31] = test system: SK-MEL-28 melanoma
[32] = test system: MALME-3M melanoma
[33] = test system: HT29 colon
[34] = test system: A498 renal
[35] = test system: HL-60(TB) leukemia
[36] = test system: DU-145 prostate
[37] = test system: OVCAR-3 ovarian
[38] = test system: RPMI-8226 leukemia
[39] = test system: PC-3 prostate
[40] = test system: MDA-N
[41] = test system: SNB-19 CNS
[42] = test system: SW-620 colon
[43] = test system: SF-295 CNS
[44] = test system: SF-539 CNS
[45] = test system: TK-10 renal
[46] = test system: CAKI-1 renal
[47] = test system: IGROV1 ovarian
[48] = test system: LOX IMVI melanoma
[49] = test system: MCF7 breast
[50] = test system: UACC-62 melanoma
[51] = test system: OVCAR-4 ovarian
[52] = test system: SK-MEL-2 melanoma
[53] = test system: NCI-H23 lung
[54] = test system: ACHN renal
[55] = test system: A549 NSCLC
[56] = test system: SN12C renal
[57] = test system: HOP-62 NSCLC
[58] = test system: K-562 leukemia
[59] = test system: UO-31 renal

COC1=C(OC)C23CCc4ccc(OC)c(O)c4C2(CCN3)CC1=O (centres undefined)
TGI [1]: > 100 µM | TGI [2]: > 100 µM | TGI [3]: > 100 µM | TGI [4]: > 100 µM | TGI [5]: > 100 µM | TGI [6]: > 100 µM | TGI [7]: > 100 µM | TGI [8]: > 100 µM | TGI [9]: > 100 µM | TGI [10]: > 100 µM | TGI [11]: > 100 µM | TGI [12]: > 100 µM | TGI [13]: > 100 µM | TGI [14]: > 100 µM | TGI [15]: > 100 µM | TGI [16]: > 100 µM | TGI [17]: > 100 µM | TGI [18]: > 100 µM | TGI [19]: > 100 µM | TGI [20]: > 100 µM | TGI [21]: > 100 µM | TGI [22]: > 100 µM | TGI [23]: > 100 µM | TGI [24]: > 100 µM | TGI [25]: > 100 µM | TGI [26]: > 100 µM | TGI [27]: > 100 µM | TGI [28]: > 100 µM | TGI [29]: > 100 µM | TGI [30]: > 100 µM | TGI [31]: > 100 µM | TGI [32]: > 100 µM | TGI [33]: > 100 µM | TGI [34]: > 100 µM | TGI [35]: > 100 µM | TGI [36]: > 100 µM | TGI [37]: > 100 µM | TGI [38]: > 100 µM | TGI [39]: > 100 µM | TGI [40]: > 100 µM | TGI [41]: > 100 µM | TGI [42]: > 100 µM | TGI [43]: > 100 µM | TGI [44]: > 100 µM | TGI [45]: > 100 µM | TGI [46]: > 100 µM | TGI [47]: > 100 µM | TGI [48]: > 100 µM | TGI [49]: > 100 µM | TGI [50]: > 100 µM | TGI [51]: > 100 µM | TGI [52]: > 100 µM | TGI [53]: > 100 µM | TGI [54]: > 100 µM | TGI [55]: > 100 µM | TGI [56]: > 100 µM | TGI [57]: > 100 µM | TGI [58]: > 100 µM

CC(=NCC(=O)O)c1ccccc1
TGI [1]: > 100 µM | TGI [2]: > 100 µM | TGI [3]: > 100 µM | TGI [4]: > 100 µM | TGI [5]: > 100 µM | TGI [6]: > 100 µM | TGI [7]: > 100 µM | TGI [59]: > 100 µM | TGI [8]: > 100 µM | TGI [9]: > 100 µM | TGI [10]: > 100 µM | TGI [11]: > 100 µM | TGI [12]: > 100 µM | TGI [13]: > 100 µM | TGI [14]: > 100 µM | TGI [15]: > 100 µM | TGI [16]: > 100 µM | TGI [17]: > 100 µM | TGI [18]: > 100 µM | TGI [19]: > 100 µM | TGI [20]: > 100 µM | TGI [21]: > 100 µM | TGI [22]: > 100 µM | TGI [23]: > 100 µM | TGI [24]: > 100 µM | TGI [25]: > 100 µM | TGI [26]: > 100 µM | TGI [27]: > 100 µM | TGI [28]: > 100 µM | TGI [29]: > 100 µM | TGI [30]: > 100 µM | TGI [31]: > 100 µM | TGI [32]: > 100 µM | TGI [33]: > 100 µM | TGI [34]: > 100 µM | TGI [35]: > 100 µM | TGI [36]: > 100 µM | TGI [37]: > 100 µM | TGI [38]: > 100 µM | TGI [39]: > 100 µM | TGI [40]: > 100 µM | TGI [41]: > 100 µM | TGI [42]: > 100 µM | TGI [43]: > 100 µM | TGI [44]: > 100 µM | TGI [45]: > 100 µM | TGI [46]: > 100 µM | TGI [47]: > 100 µM | TGI [48]: > 100 µM | TGI [49]: > 100 µM | TGI [50]: > 100 µM | TGI [51]: > 100 µM | TGI [52]: > 100 µM | TGI [53]: > 100 µM | TGI [54]: > 100 µM | TGI [55]: > 100 µM | TGI [56]: > 100 µM | TGI [57]: > 100 µM | TGI [58]: > 100 µM

[N-]=[N+]=Nc1ccc2c(c1)Sc1ccccc1N2CCCCN1CCN(Cc2ccc(C(=O)c3ccccc3)cc2)CC1
TGI [1]: 4.43 µM | TGI [2]: > 24.3 µM | TGI [3]: > 36.4 µM | TGI [4]: > 100 µM | TGI [5]: > 100 µM | TGI [6]: 4.09 µM | TGI [7]: 5.37 µM | TGI [59]: > 27.9 µM | TGI [8]: > 100 µM | TGI [9]: > 100 µM | TGI [10]: > 100 µM | TGI [11]: > 100 µM | TGI [12]: > 100 µM | TGI [13]: > 100 µM | TGI [14]: 3.55 µM | TGI [15]: 3.95 µM | TGI [16]: > 100 µM | TGI [17]: > 100 µM | TGI [18]: 11.7 µM | TGI [19]: > 66.1 µM | TGI [20]: 33 µM | TGI [21]: > 56.8 µM | TGI [22]: > 100 µM | TGI [23]: > 100 µM | TGI [24]: > 100 µM | TGI [25]: 3.86 µM | TGI [26]: > 100 µM | TGI [27]: > 100 µM | TGI [28]: 4.41 µM | TGI [29]: 22.7 µM | TGI [30]: > 100 µM | TGI [31]: 3.57 µM | TGI [32]: 4.28 µM | TGI [33]: 3.53 µM | TGI [34]: > 29 µM | TGI [35]: 10.1 µM | TGI [36]: > 100 µM | TGI [37]: > 100 µM | TGI [38]: > 100 µM | TGI [39]: > 100 µM | TGI [40]: > 100 µM | TGI [41]: > 100 µM | TGI [42]: > 100 µM | TGI [43]: > 100 µM | TGI [44]: 23.1 µM | TGI [45]: > 96.2 µM | TGI [46]: > 65.4 µM | TGI [47]: > 100 µM | TGI [48]: 3.56 µM | TGI [49]: > 23.3 µM | TGI [50]: 6.1 µM | TGI [51]: > 100 µM | TGI [52]: 6.86 µM | TGI [53]: > 80.8 µM | TGI [54]: > 100 µM | TGI [55]: > 100 µM | TGI [56]: > 100 µM | TGI [57]: > 100 µM | TGI [58]: > 100 µM

Clc1ccc2oc(CCC3CCCCC3)nc2c1
TGI [1]: 61.2 µM | TGI [2]: 61.5 µM | TGI [3]: > 100 µM | TGI [4]: 59.6 µM | TGI [5]: 94.4 µM | TGI [6]: 35 µM | TGI [7]: 45.1 µM | TGI [59]: 81.8 µM | TGI [8]: 60.7 µM | TGI [9]: 70.8 µM | TGI [10]: 58.1 µM | TGI [11]: 62.3 µM | TGI [12]: 82.9 µM | TGI [13]: > 100 µM | TGI [14]: 50.2 µM | TGI [15]: > 100 µM | TGI [16]: 43.2 µM | TGI [17]: 69.2 µM | TGI [18]: 84.4 µM | TGI [19]: > 100 µM | TGI [20]: > 100 µM | TGI [21]: > 100 µM | TGI [22]: > 100 µM | TGI [23]: 70.7 µM | TGI [24]: > 100 µM | TGI [25]: 48.3 µM | TGI [26]: > 100 µM | TGI [27]: 57.1 µM | TGI [28]: 79.3 µM | TGI [29]: 81.7 µM | TGI [30]: > 100 µM | TGI [31]: > 100 µM | TGI [32]: > 100 µM | TGI [33]: 83.8 µM | TGI [34]: 82.3 µM | TGI [35]: 42.6 µM | TGI [36]: > 100 µM | TGI [37]: 36.1 µM | TGI [38]: > 100 µM | TGI [39]: > 100 µM | TGI [40]: > 100 µM | TGI [41]: > 100 µM | TGI [42]: > 100 µM | TGI [43]: 56.2 µM | TGI [44]: > 100 µM | TGI [45]: > 100 µM | TGI [46]: 77.7 µM | TGI [48]: 25.2 µM | TGI [49]: 51.3 µM | TGI [50]: > 100 µM | TGI [51]: > 100 µM | TGI [52]: 39.1 µM | TGI [53]: 98.5 µM | TGI [54]: > 100 µM | TGI [55]: > 100 µM | TGI [56]: 48.6 µM | TGI [57]: 72.8 µM | TGI [58]: > 100 µM
